Here are results for 19 compounds from PubChem BioAssay (NCI).

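Compound exposure: 48 hours, 5 concentrations, 96-well plates. GI50 marks 50% less growth. The concentration for full growth arrest is given as TGI.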 Where a SMILES comes first, the peptide text is derived from it. [ ]: non-standard residue; d: D form. pGlu = O=C1CC[CH](C(=O)O)N1 Where only a bound is given, the exact number is not on record here.

What all share (assay): inhibition of tumour cell growth, NCI panel, 48 h
For test [1], the system named is OVCAR-8 ovarian.
For test [2], the system named is BT-549 breast.
Test [3] deals with HCC-2998 colon.
The subject of test [4] is MDA-MB-435.
Test [5] has as its system MCF7 breast.
Test [6] has as its system HOP-62 NSCLC.
In test [7] the test system is HOP-92 NSCLC.
Test [8] concerns UACC-62 melanoma.
For test [9], the system named is SF-268 CNS.
The subject of test [10] is HT29 colon.

Turning to `O=C1C(Cl)=C(Nc2cccc(Cl)c2)C(=O)N1Cc1ccc(Cl)cc1`, the GI50 is 0.833 µM in [1]; 0.338 µM in test [2]; 1.16 µM in test [3]; 0.396 µM in [4]; 0.499 µM in test [5]; 1.53 µM in [6]. Besides, the GI50 in test [7] is 1.3 µM; in [8], 0.779 µM; in [9] it was 1.41 µM; in test [10], 0.758 µM. Besides, the TGI in test [1] is 18.5 µM; in test [2] it was 2.84 µM; in test [3], 4.72 µM; in test [4], 2.91 µM; in test [5], 13.6 µM; in test [6], 13.9 µM. Further, the TGI in [7] came to 4.96 µM; in test [8], 4.68 µM; in test [9], 19.3 µM; in [10], 31.3 µM.
With `CC(C)Cn1cnc2c(SCc3ccc(Cl)cc3Cl)nc(N)nc21`, the TGI was 93.3 µM in test [1]; more than 100 µM in [2]; 37.4 µM in [3]; more than 100 µM in test [4]; 47.8 µM in [5]; more than 100 µM in test [6]. Besides, the TGI is 69.9 µM in [7], more than 100 µM in [8], more than 100 µM in test [9] and more than 100 µM in test [10].
Regarding `COc1ccc2[nH]cc(-c3ccc(-c4c[nH]c5ccc(OC)cc45)s3)c2c1`, the GI50 in [1] is 5.86 µM; in [2], 7.44 µM; in [3], 2.4 µM; in test [4], 8.32 µM; in test [5], 4.72 µM; in test [6], 4.67 µM. The GI50 in [7] is 4.64 µM; in test [8], 13.3 µM; in [9], 8.11 µM; in [10], 2.06 µM. Besides, the TGI in test [1] was more than 49.9 µM; in test [2], 20.9 µM; in [3], 5.13 µM; in [4], more than 41.4 µM; in [5] it was 27 µM; in test [6], 10.5 µM. In addition, the TGI in [7] was found to be 19.5 µM; in [8], 30.8 µM; in test [9], 31.7 µM; in test [10], 4.51 µM.
With `C[C@H](NC(=O)[C@@H](C)N)[C@H](Oc1ccc2c(cnn2-c2ccc(F)cc2)c1)c1ccc2c(c1)OCCO2`, the GI50 was 3.25 µM in test [1]; 1.82 µM in [2]; 1.78 µM in test [3]; 1.61 µM in test [4]; 1.43 µM in test [5]; 4.34 µM in test [6]. The GI50 was 1.87 µM in [8], 2.48 µM in [9] and 1.87 µM in test [10]. The TGI in test [1] turned out to be 14 µM; in [2], 15 µM; in [3], 3.66 µM; in test [4], 3.24 µM; in test [5], 3.71 µM; in test [6], 20.1 µM. Besides, the TGI in test [8] was 3.39 µM; in test [9], 10.7 µM; in [10] it was 3.84 µM.
`C[C@]12C[C@H](CCCCCCNCCOC(=O)NCCCc3ccc(N(CCCl)CCCl)cc3)C3=C4CCC(=O)C=C4CCC3C1CC[C@@H]2O` (some centres undefined): the GI50 in test [2] is 1.6 µM; in [3], 1.81 µM; in [4], 2.38 µM; in [5], 0.3 µM; in [6] it was 2.2 µM; in [9] it was 1.2 µM. Also, the TGI in test [2] worked out at 3.09 µM; in test [3], 3.23 µM; in test [4] it was 6.53 µM; in test [5], 3.05 µM; in [6], 10.4 µM; in [9], 3.86 µM.
As to `Clc1nc(Cl)c2ncn(CC3(Cn4cnc5c(Cl)nc(Cl)nc54)COC3)c2n1`, the GI50 is 0.256 µM in test [1]; 0.501 µM in test [2]; 0.221 µM in test [3]; 0.234 µM in test [4]; 0.188 µM in test [5]; 0.221 µM in test [6]. Also, the GI50 in test [7] was 0.33 µM; in test [8], 0.283 µM; in [9], 0.196 µM; in test [10], 0.226 µM. The TGI in [1] was 0.532 µM; in test [2], 1.69 µM; in [3], 0.389 µM; in [4] it was 0.613 µM; in test [5], 0.428 µM; in [6] it was 0.426 µM. Moreover, the TGI in [7] is 0.876 µM; in test [8], 0.903 µM; in [9], 0.372 µM; in [10], more than 100 µM.
On to `O.O.[NH-]C1(C(=O)O)CCCC1.[NH-]C1(C(=O)O)CCCC1.[Ni+2]`, for which the TGI in test [1], in test [2], in test [4], in test [5], in test [6] and in [7] was more than 100 µM in each case. Further, the TGI in test [8], in test [9] and in [10] was more than 100 µM throughout. The GI50 in test [2] and in [4] was more than 100 µM throughout.
With `COc1cc(C(O)CCBr)c(OC)cc1C` (centres undefined), the TGI was more than 46.8 µM in test [1]; more than 84.4 µM in test [2]; more than 42.6 µM in test [4]; 54.7 µM in test [5]; more than 93.5 µM in test [6]; more than 100 µM in [7]. Moreover, the TGI in test [8] was 50.8 µM; in [9], more than 100 µM; in test [10], more than 58.3 µM.
In the case of `CCOC(=O)/C(C=Nc1ccc(-c2nc3ccccc3[nH]2)cc1)=C(/C)O`, the GI50 was 8.78 µM in test [1]; 10 µM in test [2]; 14.9 µM in [4]; 11.7 µM in test [5]; 19.7 µM in [6]; 19.4 µM in [7]. The GI50 is 8.59 µM in test [8] and 11.7 µM in test [9]. The TGI in test [1] is 17.7 µM; in test [2], 24.9 µM; in test [4] it was 43.4 µM; in test [5], more than 50 µM; in test [6] it was more than 50 µM; in test [7], more than 50 µM. The TGI in test [8] came to 17.6 µM; in test [9] it was 34.5 µM.
As for `CCNC(=O)C1CCCN1C(=O)C(CCCN=C(N)N)NC(=O)C(CC(C)C)NC(=O)C(CC(C)C)NC(=O)C(Cc1ccc(O)cc1)NC(=O)C(CO)NC(=O)C(Cc1c[nH]c2ccccc12)NC(=O)C(Cc1cnc[nH]1)NC(=O)C1CCC(=O)N1` (centres undefined) ([pGlu]HWSYLLRP-NHEt; configuration not given here), the GI50 in test [1], in [2], in [3], in [4], in test [5] and in test [6] was more than 100 µM each time. Moreover, the GI50 in [7], in [9] and in test [10] was more than 100 µM each time. Moreover, the TGI in test [1], in [2], in [3], in [4], in [5] and in test [6] was more than 100 µM each time. For the same compound, the TGI in test [7], in test [9] and in test [10] was more than 100 µM each time.
Regarding `OC(Cc1ccncc1)C(Cl)(Cl)Cl` (centres undefined), the GI50 in test [1] is more than 100 µM; in test [2], more than 100 µM; in test [4], more than 100 µM; in test [5], more than 100 µM; in test [6], more than 100 µM; in test [7] it was 0.109 µM. In addition, the GI50 in test [8], in test [9] and in test [10] was more than 100 µM throughout. In addition, the TGI in test [1], in test [2], in [4], in test [5], in [6] and in [7] was more than 100 µM in each case. Besides, the TGI in test [8], in [9] and in test [10] was more than 100 µM in each case.
`CNC(=O)Nc1nc2ccc([N+](=O)[O-])cc2[nH]1`: the TGI in test [1], in test [2], in [3], in test [4], in test [5] and in [6] was more than 100 µM each time. Also, the TGI in [7], in test [9] and in test [10] was more than 100 µM each time.
On to `CCOc1cccc(/C=N/N=C2\C(=O)Nc3c(Cl)cc(Cl)cc32)c1O`, for which the TGI in [1], in test [2], in [3], in test [4], in test [5] and in [6] was more than 100 µM each time. Further, the TGI in test [7], in test [8] and in test [10] was more than 100 µM each time.
As to `CN1CCC2(CC1)ONC1=NCCN12`, the TGI in test [1] was 12.9 µM; in test [2] it was more than 100 µM; in test [3], 43.8 µM; in test [4], more than 100 µM; in test [5], 87.1 µM; in [6], more than 100 µM. The TGI in test [8], in test [9] and in test [10] was more than 100 µM throughout. The GI50 in test [2] is 53.1 µM; in [3], 15.8 µM; in [4], 80.6 µM; in test [5], 23 µM; in [6], 52.9 µM; in test [8], 31.2 µM. Also, the figures for the GI50 in test [9] and in [10] were 37.2 µM and 53.7 µM, respectively.
In the case of `C=C1C(=O)O[C@@H]2C[C@@H](C)[C@@H]3C=CC(=O)[C@@]3(C)[C@@H](O)[C@H]12`, the TGI in test [1] amounted to 5.71 µM; in test [2] it was 2.32 µM; in test [3], 2.85 µM; in [4] it was 3.39 µM; in [5], 2.3 µM; in test [6], 17.7 µM. For the same compound, the figures for the TGI in [8], in test [9] and in test [10] were 5.46 µM, 27.9 µM and 3.88 µM, respectively.
On to `COc1ccc(/C=C/C(=O)c2cc(OC)c(OC)c(OC)c2)cc1OCc1cn(Cc2ccc(F)cc2)nn1`, for which the GI50 in [1] was 2.58 µM; in [2], 3.45 µM; in test [3], 3.42 µM; in [4] it was 2.78 µM; in test [5] it was 2.43 µM; in test [6], 2.14 µM. The GI50 in test [8] is 3.16 µM; in test [9], 2.98 µM; in [10], 3 µM. The TGI in test [1] was 31.5 µM; in test [2] it was 27.7 µM; in [3] it was 11.5 µM; in [4], more than 100 µM; in [5] it was more than 100 µM; in [6] it was 6.18 µM. Besides, the TGI is 14.3 µM in [8], more than 100 µM in test [9] and 7.3 µM in test [10].
As for `Cc1c[n+](=O)c2ccccc2n1[O-]`, the TGI in test [1], in test [2], in test [4], in [5], in test [6] and in [7] was more than 100 µM throughout. Also, the TGI in test [8], in test [9] and in test [10] was more than 100 µM each time.
Regarding `COc1ncnc2c(-c3ccccc3)cn(COCc3ccccc3)c12`, the GI50 is 3.02 µM in test [1]; 2.57 µM in [2]; 4.01 µM in [3]; 2 µM in [4]; 2.53 µM in test [5]; 5.78 µM in test [6]. Also, the GI50 is 2.1 µM in [8], 4.25 µM in [9] and 3.49 µM in test [10]. Also, the TGI was 11.7 µM in test [1]; 7.6 µM in [2]; more than 100 µM in [3]; 6.13 µM in test [4]; 9.32 µM in test [5]; 87.6 µM in test [6]. The figures for the TGI in test [8], in test [9] and in [10] were 8.81 µM, more than 100 µM and more than 100 µM, respectively.
Take `CCCCCCCCNc1cc2c3c(c1)CCCN3CCC2`: the GI50 in [1] was 1.87 µM; in test [2], 2.28 µM; in test [3], 5.41 µM; in test [4] it was 0.951 µM; in [5], 2.98 µM; in test [6] it was 4.04 µM. The GI50 is 2.16 µM in test [8], 2.04 µM in test [9] and 0.774 µM in [10]. In addition, the TGI is 20.3 µM in test [1]; 12.3 µM in test [2]; 26.8 µM in test [3]; 11.7 µM in test [4]; 13 µM in test [5]; 18.3 µM in [6]. Besides, the TGI in [8] was determined as 16.4 µM; in test [9] it was 12.8 µM; in test [10] it was 11.1 µM.
